Test results taken from article PMC6501426 (Clinical Epigenetics, 2019).

Key:
[1] = tested on: DNMT3A protein level in HCT116 cells; assay: Western blot of DNMT3A protein in HCT116; type: cell-based, human; details: 24 h; MC3353 effect detectable at 0.1 μM
Source text: Cells were lysed in Laemmli buffer; subsequently, the proteins were resolved by sodium dodecyl sulfate-polyacrylamide gel electrophoresis and transferred to a 0.45-μm nitrocellulose membrane (Bio-Rad Laboratories, Hercules, CA). The following primary antibodies were used for immunoblotting: α-E-cadherin (BD Transduction Laboratories, Franklin Lakes, NJ), α-MMP2 (Abcam), α-DNMT3a (Santa Cruz Biotechnologies, Dallas, TX), and α-GAPDH (Millipore Corp., Bedford, MA), used as a loading control. The immune complexes were detected with horseradish peroxidase-conjugated species-specific secondary antiserum (Bio-Rad Laboratories, Milan, Italy) then by enhanced chemiluminescence reaction (Bio-Rad Laboratories, Milan, Italy). Densitometric analysis of protein expression was performed by using the Fiji ImageJ image processing package.
GAPDH was used as a loading control. Blots are representative of two independent experiments

Abl kinase (h) = target: T1, Abl kinase (h) (Homo sapiens, UniProt P00519); assay: Kinase panel (ExpresS Diversity Kinase Profile, Cerep); type: biochemical; details: read-out: % inhibition at 10 µM by MC3353, Abl kinase (h), ATP 10 μM
T1 construct: purchased Eurofins Cerep
T1 sequence (P00519 whole entry): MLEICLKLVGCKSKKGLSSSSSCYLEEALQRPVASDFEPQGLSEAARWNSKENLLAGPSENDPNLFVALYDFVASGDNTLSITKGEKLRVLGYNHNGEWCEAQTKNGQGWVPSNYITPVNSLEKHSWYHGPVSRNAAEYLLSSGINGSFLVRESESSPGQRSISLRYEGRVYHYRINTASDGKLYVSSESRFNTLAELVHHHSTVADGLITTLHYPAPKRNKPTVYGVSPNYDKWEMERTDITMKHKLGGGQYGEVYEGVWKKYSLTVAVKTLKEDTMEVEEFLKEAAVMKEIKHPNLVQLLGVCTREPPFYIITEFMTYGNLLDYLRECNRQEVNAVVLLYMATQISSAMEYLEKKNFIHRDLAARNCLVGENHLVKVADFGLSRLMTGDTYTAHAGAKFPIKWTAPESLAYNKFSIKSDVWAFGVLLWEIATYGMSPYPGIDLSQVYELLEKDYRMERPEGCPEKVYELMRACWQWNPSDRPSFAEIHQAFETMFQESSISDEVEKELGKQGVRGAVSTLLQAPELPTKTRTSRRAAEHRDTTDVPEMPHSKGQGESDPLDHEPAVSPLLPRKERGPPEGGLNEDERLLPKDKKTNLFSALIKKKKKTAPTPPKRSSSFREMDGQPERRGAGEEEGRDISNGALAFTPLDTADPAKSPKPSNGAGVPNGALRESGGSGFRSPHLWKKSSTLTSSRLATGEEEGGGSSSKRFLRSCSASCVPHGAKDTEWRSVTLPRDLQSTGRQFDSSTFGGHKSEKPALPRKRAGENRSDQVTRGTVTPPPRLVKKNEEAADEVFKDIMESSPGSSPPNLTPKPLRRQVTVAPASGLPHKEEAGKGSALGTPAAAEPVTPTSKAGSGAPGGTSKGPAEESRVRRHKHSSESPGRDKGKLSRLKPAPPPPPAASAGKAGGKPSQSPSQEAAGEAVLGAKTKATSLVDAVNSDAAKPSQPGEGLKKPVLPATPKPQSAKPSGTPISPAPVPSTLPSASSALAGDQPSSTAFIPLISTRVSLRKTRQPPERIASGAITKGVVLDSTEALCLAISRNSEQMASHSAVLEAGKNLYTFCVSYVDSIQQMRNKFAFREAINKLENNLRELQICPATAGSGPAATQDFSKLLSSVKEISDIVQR
Protocol: The test compound, reference compound or water (control) were mixed with the enzyme (for the exact amount see table below) in the appropriate buffer. Thereafter, the reaction was initiated by adding the required amount of the appropriate substrate and of ATP, and the mixture is incubated at room temperature (variable reaction time, see table below). For control basal measurements, the enzyme was omitted from the reaction mixture. Following incubation, the reaction was stopped by adding 13 mM EDTA. After 5 min, the proper antibody labelled with europium chelate was added. After 60 more min, the fluorescence transfer was measured at λex=337 nm, λem=620 nm and λem=665 nm using a microplate reader (Envision, Perkin Elmer). The enzyme activity was determined by dividing the signal measured at 665 nm by that measured at 620 nm (ratio). The results are expressed as a percent inhibition of the control enzyme activity.

Q: `O=C(Nc1ccc(NC(=O)c2ccc(Nc3ccnc4ccccc34)cc2)cc1)OCc1ccccc1` [MC3353, Benzyl (4-(4-(quinolin-4-ylamino)benzamido)phenyl)carbamate] was tested. Which “DNMT3A protein expression level (western blot), HCT116” value [1] did it give?
A: Its value is “DNMT3A protein downregulation was observed”.

Q: And the inhibition at 10 µM (Abl kinase (h))?
A: The inhibition at 10 µM was 0%.
